Experimental data published in patent publication US12234245B2, “Sulfonimidamide compounds as inhibitors of interleukin-1 activity” (Genentech, Inc., priority 2018, dated 2025).
Where two headings read alike, the source gives them in different places.

Key:
Format in all cases: cell-based
NLRP3 inflammasome [1] = biological target: T1, NLRP3 inflammasome (Homo sapiens, UniProt Q96P20); test: NLRP3 inflammasome activation assay in Kupffer cells, IL-1β release; set-up: were freshly isolated from human peripheral blood from healthy donors; StemCells Technologies; host or cells: primary human PBMCs, LPS-primed, nigericin-stimulated; conditions: LPS primed, nigericin
T1 sequence (Q96P20 whole entry): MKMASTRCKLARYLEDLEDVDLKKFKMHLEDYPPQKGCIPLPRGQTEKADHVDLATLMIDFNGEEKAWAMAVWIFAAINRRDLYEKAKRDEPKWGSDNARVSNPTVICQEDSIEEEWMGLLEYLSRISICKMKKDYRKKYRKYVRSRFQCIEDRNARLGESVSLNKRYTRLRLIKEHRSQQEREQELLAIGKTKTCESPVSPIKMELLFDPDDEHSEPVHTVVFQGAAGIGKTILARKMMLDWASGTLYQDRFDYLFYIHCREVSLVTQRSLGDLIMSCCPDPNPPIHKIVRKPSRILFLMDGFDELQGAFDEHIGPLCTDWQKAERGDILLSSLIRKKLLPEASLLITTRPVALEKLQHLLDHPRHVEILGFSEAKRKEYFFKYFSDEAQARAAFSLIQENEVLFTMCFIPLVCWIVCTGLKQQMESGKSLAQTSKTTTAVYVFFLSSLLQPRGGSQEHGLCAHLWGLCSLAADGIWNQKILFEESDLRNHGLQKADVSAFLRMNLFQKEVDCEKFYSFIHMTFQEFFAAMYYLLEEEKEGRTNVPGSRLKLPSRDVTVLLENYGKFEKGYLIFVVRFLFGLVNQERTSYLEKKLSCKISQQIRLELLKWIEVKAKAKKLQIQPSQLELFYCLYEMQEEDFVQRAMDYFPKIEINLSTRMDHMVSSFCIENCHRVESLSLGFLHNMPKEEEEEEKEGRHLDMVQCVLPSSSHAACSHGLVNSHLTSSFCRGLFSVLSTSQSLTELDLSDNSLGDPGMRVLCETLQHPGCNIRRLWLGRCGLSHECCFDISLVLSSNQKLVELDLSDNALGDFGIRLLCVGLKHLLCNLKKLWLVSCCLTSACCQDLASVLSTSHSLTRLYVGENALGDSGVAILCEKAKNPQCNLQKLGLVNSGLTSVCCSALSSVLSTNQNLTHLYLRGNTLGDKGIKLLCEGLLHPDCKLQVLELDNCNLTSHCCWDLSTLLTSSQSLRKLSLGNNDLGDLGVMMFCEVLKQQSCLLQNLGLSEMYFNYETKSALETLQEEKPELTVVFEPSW
Text: Some of the following assays were used to determine the inhibitory activity of the compounds on the NLRP3 inflammasome using a common inflammasome activation stimuli—nigericin.
(§1) Human Kupffer cells (KCs), specialized liver macrophages residing in […], were obtained by gradient isolation from liver specimens harvested post-mortem by Samsara Sciences. Cells were obtained through an IRB approved donor program by Samsara Sciences and all donors tested negative for bacterial and viral infections.
(§2) Fresh or cryopreserved PMBCs were seeded in V-bottom 96-well plate at 0.5-1×10^5 cells per well and incubated overnight at 37° C. with 5% CO2 in RPMI 1640 medium with GlutaMAX supplement, 4.5 g/L D-glucose, 10% Fetal Bovine Serum (FBS), […] Sodium Pyruvate, 1% Penicillin/Streptomycin, 10 mM HEPES and 0.05 mM of β-mercaptoethanol. Freshly isolated or cryopreserved KCs cells were seeded in flat-bottom 96-well plates at 0.6-1.5×10^5 cells/well and incubated overnight at 37° C. 5% CO2 in RPMI 1640 Medium with GlutaMAX supplement, FBS, 1% Penicillin/Streptomycin and 10 mM HEPES. The following day, the cells were primed with 100 ng/mL of lipopolysaccharides (LPS; Sigma Aldrich) in FBS-free RPMI 1640 for 3 h. After the priming step, the media was removed and PBMCs were pre-incubated with serial concentrations of test compounds (0.00017-10 uM) or vehicle (DMSO) for 30 min in FBS-free media prior to addition of the NLRP3 activator. Cells were then stimulated with 10 uM Nigericin (Sigma Aldrich; InvivoGen) for 1.5 h. Plates were centrifuged at 1,500 rpm for 3 minutes to pellet cells and supernatant was transferred into new plates for subsequent experiments.
(§3) For ELISA assays cells were seeded into 96-well plates. Post study, supernatants were removed and the levels of mature IL-1β, IL18 and TNFα (Quantikine ELISA, R&D systems) were measured in cell conditioned media by ELISA according to manufacturer's instructions.

Kupffer cells = test: CTG (CellTiter-Glo) viability assay in Kupffer cells; conditions: human Kupffer cells
Method: as §1, §2
Viability of compound treated cells was measured using CellTiter-Glo® assay (Promega, Madison, Wis.) that measures the ATP content of cells which is proportional to the number of live cells within a well. This is a counter-screen to establish that the reduction of IL-1β levels in LPS and nigericin stimulated and compound treated cells is not due to cytotoxicity, but rather through the inhibition of the inflammasome pathway. Compounds inhibiting NRLP3 inflammasome activation ultimately increase the viability of LPS and nigericin stimulated cells by blocking NLRP3 mediated pyroptosis that would otherwise lead to cell lysis.

PBMCs = test: CTG (CellTiter-Glo) viability assay in PBMCs; conditions: LPS and nigericin stimulated
Method in brief: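 Human donor PBMCs were primed with 100 ng/mL LPS for 3 h, pre-treated with compound (0.00017–10 µM) for 30 min in FBS-free medium, then stimulated with 10 µM nigericin for 1.5 h. Viability was read as cellular ATP by CellTiter-Glo, a cytotoxicity counter-screen to IL-1β release.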

NLRP3 inflammasome [2] = biological target: T1, NLRP3 inflammasome; test: NLRP3 inflammasome activation assay in PBMCs, IL-1β release (ELISA / HTRF); set-up: were freshly isolated from human peripheral blood from healthy donors; StemCells Technologies; host or cells: primary human PBMCs, LPS-primed, nigericin-stimulated; conditions: LPS primed
Method in brief: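 Human PBMCs primed with 100 ng/mL LPS for 3 h, pre-treated with compound for 30 min (0.00017–10 µM, or from 40 µM in 2-fold 20-point series), then stimulated with 10 µM nigericin for 1.5 h at 37 °C. Released IL-1β in supernatant quantified by ELISA or by HTRF (665/620 ratio, overnight RT).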

TNFα [3] = test: TNFα counter-screen in LPS and nigericin stimulated PBMCs; conditions: human PBMCs
Method: Human peripheral blood mononuclear cells (PBMCs), consisting of lymphocytes (T, B and NK cells), monocytes and dendritic cells, were freshly isolated from human peripheral blood from healthy donors. Cells were obtained through an IRB approved donor program by iXCells Biotechnologies where all the donors were tested for bacterial and viral infections. Cells were purified from peripheral blood using ficoll gradient centrifugation.
as §2, §3
(§4) TNFα levels of LPS and nigericin stimulated cells were measured by HTRF assay (Cisbio, Bedford, MA). […] Measuring TNFalpha production also serves as a technical counter-screen to eliminate compounds that interfere with the HTRF reagents. Thus compounds that inhibit both IL-1β and TNFα levels are triaged for either being non-selective for inflammasome or interfering with the HTRF readout.

NLRP3 inflammasome [4] = biological target: T1, NLRP3 inflammasome; test: THP-1 ASC-GFP speck assay; set-up: host or cells: THP-1 ASC-GFP cells, PMA-differentiated, LPS-primed, nigericin-stimulated; conditions: THP-1 ASC-GFP cells, PMA differentiated, LPS primed, 10 μM nigericin; read-out: THP1 ASC Speck IC50
Method in brief: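 PMA-differentiated (500 ng/ml, overnight) THP-1 ASC-GFP cells primed with 1 μg/mL LPS for 3 h, preincubated 30 min with compound (top 40 μM, 2-fold, 20 points), then stimulated with 10 μM nigericin for 90 min at 37 °C. After fixation and Hoechst staining, imaging gave the percentage of cells bearing a GFP ASC speck.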

TNFα [5] = test: TNFα counter-screen in LPS and nigericin stimulated Kupffer cells; conditions: human Kupffer cells
Method: as §1, §2, §3, §4

[6] = 10 uM nigericin, read-out: PBMC IL-1 β IC50
[7] = 10 μM nigericin, read-out: PBMC IL-1β IC50
[8] = human PBMCs, read-out: PBMC CTG IC50

SMILES | IC50 (NLRP3 inflammasome [2]; [7]) | IC50 (NLRP3 inflammasome [4]) | IC50 (Kupffer cells) | IC50 (PBMCs; Homo sapiens, PBMC) | IC50 (TNFα [3]; PBMC) | IC50 (PBMCs; [8]) | further results
NS(=O)(=NC(=O)Nc1c2c(cc3c1CCC3)CCC2)c1cnn2c1OCCC2 (stereo not drawn) |  |  | 100 to 1000 nM | 100 to 1000 nM |  |  | IC50 (NLRP3 inflammasome [1]; read-out: Kupffer IL-β B IC50): 100 to 1000 nM; IC50 (NLRP3 inflammasome [2]; [6]): < 100 nM
NS(=O)(=NC(=O)Nc1c2c(c(F)c3c1CCC3)CCC2)c1cnn2c1OCC2 (racemic) [Example 29, N′-((8-fluoro-1,2,3,5,6,7-hexahydro-s-indacen-4-yl)carbamoyl)-2,3-dihydropyrazolo[5,1-b]oxazole-7-sulfonimidamide] | 94 nM | 140 nM |  | 3750 nM | > 10000 nM |  | 
NS(=O)(=NC(=O)Nc1c2c(cc3c1CCC3)CCC2)c1cnn2c1OCCC2 (single isomer, unassigned) [Example 13] | 35 nM | 75 nM |  |  | > 10000 nM | 8 nM | 
COC1COc2c(S(N)(=O)=NC(=O)Nc3c4c(cc5c3CCC5)CCC4)cnn2C1 (single isomer, unassigned) [Example 20] | 4 nM |  | < 100 nM |  |  | 19 nM | IC50 (NLRP3 inflammasome [1]; read-out: Kupffer IL-1 β IC50): < 100 nM; IC50 (TNFα [3]; read-out: PBMC TNFα IC50): > 10000 nM; IC50 (TNFα [5]): > 10000 nM
CNC1COc2c(S(N)(=O)=NC(=O)Nc3c(C(C)C)cc(F)cc3C(C)C)cnn2C1 (single isomer, unassigned) [Example 27] | 120 nM | 200 nM |  | > 10000 nM | > 10000 nM |  | 
COC1COc2c(S(N)(=O)=NC(=O)Nc3c4c(c(F)c5c3CCC5)CCC4)cnn2C1 (single isomer, unassigned) [Example 31] | 150 nM | 620 nM |  |  | > 10000 nM | 20 nM | 
CO[C@@H]1COc2c(S(=N)(=O)NC(=O)Nc3c4c(cc5c3CCC5)CCC4)cnn2C1 (stereo partly drawn) [drawing 668] |  |  | < 100 nM |  |  | < 100 nM | IC50 (NLRP3 inflammasome [1]; read-out: Kupffer IL-β B IC50): < 100 nM; IC50 (TNFα [3]; read-out: PBMC TNF α IC50): > 10000 nM; IC50 (TNFα [5]; read-out: Kupffer TNF α IC50): > 10000 nM; IC50 (NLRP3 inflammasome [2]; [6]): < 100 nM
CN[C@@H]1COc2c(S(=N)(=O)NC(=O)Nc3c4c(cc5c3CCC5)CCC4)cnn2C1 (stereo partly drawn) [drawing 674] |  |  | < 100 nM |  |  | < 100 nM | IC50 (NLRP3 inflammasome [1]; read-out: Kupffer IL-β B IC50): < 100 nM; IC50 (TNFα [3]; read-out: PBMC TNF α IC50): > 10000 nM; IC50 (TNFα [5]; read-out: Kupffer TNF α IC50): > 10000 nM; IC50 (NLRP3 inflammasome [2]; [6]): < 100 nM
CN(C)[C@@H]1COc2c(S(=N)(=O)NC(=O)Nc3c4c(cc5c3CCC5)CCC4)cnn2C1 (stereo partly drawn) [drawing 682] |  |  |  |  |  | < 100 nM | IC50 (TNFα [3]; read-out: PBMC TNF α IC50): > 10000 nM; IC50 (NLRP3 inflammasome [2]; [6]): < 100 nM

Now from value to compound, other results behind:

IC50 (NLRP3 inflammasome [2]; [7]) | IC50 (NLRP3 inflammasome [4]) | SMILES | IC50 (Kupffer cells) | IC50 (PBMCs; Homo sapiens, PBMC) | IC50 (TNFα [3]; PBMC) | IC50 (PBMCs; [8]) | further results
82 nM |  | NS(=O)(=NC(=O)Nc1c2c(cc3c1CCC3)CCC2)c1cnn2c1OCCC2 (racemic) [Example 1, N′-((1,2,3,5,6,7-hexahydro-s-indacen-4-yl)carbamoyl)-6,7-dihydro-5H-pyrazolo[5,1-b][1,3]oxazine-3-sulfonimidamide] | 103 nM | 300 nM |  |  | IC50 (NLRP3 inflammasome [1]; read-out: Kupffer IL-1 β IC50): 123 nM
67 nM | 360 nM | NS(=O)(=NC(=O)Nc1c2c(c(F)c3c1CCC3)CCC2)c1cnn2c1OCCCC2 (racemic) [Example 30, N′-((8-fluoro-1,2,3,5,6,7-hexahydro-s-indacen-4-yl)carbamoyl)-5,6,7,8-tetrahydropyrazolo[5,1-b][1,3]oxazepine-3-sulfonimidamide] |  | > 10000 nM | > 10000 nM |  | 
1910 nM | 1200 nM | NS(=O)(=NC(=O)Nc1c2c(cc3c1CCC3)CCC2)c1cnn2c1OCCC2 (single isomer, unassigned) [Example 14] |  |  |  | 1 nM | IC50 (TNFα [3]; read-out: PBMC TNFα IC50): > 10000 nM
1120 nM | 640 nM | COC1COc2c(S(N)(=O)=NC(=O)Nc3c4c(cc5c3CCC5)CCC4)cnn2C1 (single isomer, unassigned) [Example 19] |  |  | > 10000 nM | 860 nM | 
7.6 nM | 9.7 nM | CNC1COc2c(S(N)(=O)=NC(=O)Nc3c4c(cc5c3CCC5)CCC4)cnn2C1 (single isomer, unassigned) [Example 26] | 21 nM |  | > 10000 nM | 2 nM | IC50 (NLRP3 inflammasome [1]; read-out: Kupffer IL-1 β IC50): 20 nM; IC50 (TNFα [5]): > 10000 nM
13 nM | 45 nM | COC1COc2c(S(N)(=O)=NC(=O)Nc3c4c(c(F)c5c3CCC5)CCC4)cnn2C1 (single isomer, unassigned) [Example 32] |  |  |  | 5 nM | IC50 (TNFα [3]; read-out: PBMC TNFα IC50): > 10000 nM
890 nM | 1600 nM | CN(C)C1COc2c(S(N)(=O)=NC(=O)Nc3c4c(cc5c3CCC5)CCC4)cnn2C1 (single isomer, unassigned) [Example 33] |  | 2 nM | > 10000 nM |  | 
